In patent US20250296959A1, “B7-H3 TARGETING PEPTIDES AND CONSTRUCTS THEREOF” (Mariana Oncology Inc., priority 2024, published 2025):
Starred links: 1 amine or outer side, 2 acyl side, 3 side chain; linkers in the order of their positions; H or OH if unused. Positions of bridges follow the written chain, without caps; N, C: chain ends. Non-standard residues stand in square brackets, D forms with d. Residues, ends and D or L forms follow the SMILES beside them. Groups on a side chain read outwards from the residue. *: point of attachment. X16 = O=C(O)CCOCCOCCOCCOCCOCCOCCOCCOCCOCCOCCOCCOCCOCCOCCOCCOCCOCCOCCOCCOCCOCCC(=O)*; X12 = O=C(O)CN1CCN(CC(=O)O)CCN([C@@H](CCC(=O)*)C(=O)O)CCN(CC(=O)O)CC1; Ala(1-CH2CO2H-4-piperidyl) = N[C@@H](CC1CCN(CC(=O)O)CC1)C(=O)O; Ala(piperidin-4-yl) = O=C([C@H](CC1CCN([*:3])CC1)N[*:1])[*:2]; X10 = C[C@@H](c1c[nH]c2ccc(F)cc12)[C@H](N[*:1])C(=O)[*:2]; DOTA = O=C(O)CN1CCN(CC(=O)O)CCN(CC(=O)*)CCN(CC(=O)O)CC1; Phe(4-COOH) = N[C@@H](Cc1ccc(C(=O)O)cc1)C(=O)O; Trp(5-F) = N[C@@H](Cc1c[nH]c2ccc(F)cc12)C(=O)O; Trp(2-Me) = Cc1[nH]c2ccccc2c1C[C@H](N)C(=O)O; C16 diacid = O=C(O)CCCCCCCCCCCCCCC(=O)*; γGlu = O=C(O)[C@H](CCC(=O)[*:2])N[*:1]; Ala(4-THP) = N[C@@H](CC1CCOCC1)C(=O)O; Phe(2-Me) = Cc1ccccc1C[C@H](N)C(=O)O; Val(3-OH) = CC(C)(O)[C@H](N)C(=O)O; αMeF = C[C@](N)(Cc1ccccc1)C(=O)O; 4Pal = N[C@@H](Cc1ccncc1)C(=O)O; PEG4 = NCCOCCOCCOCCOCCC(=O)O; Tle = CC(C)(C)[C@H](N)C(=O)O; hLeu = CC(C)CC[C@H](N)C(=O)O

What follows are compounds tested against T1, human 4lg B7-H3 (Homo sapiens, UniProt Q5ZPR3) (assay: Affinity determination by surface plasmon resonance (SPR) to 4Ig B7-H3). Settings: SPR KD—25° C., 4Ig B7-H3; 25° C. flow cell temperature.
T1 sequence (Q5ZPR3 29-534): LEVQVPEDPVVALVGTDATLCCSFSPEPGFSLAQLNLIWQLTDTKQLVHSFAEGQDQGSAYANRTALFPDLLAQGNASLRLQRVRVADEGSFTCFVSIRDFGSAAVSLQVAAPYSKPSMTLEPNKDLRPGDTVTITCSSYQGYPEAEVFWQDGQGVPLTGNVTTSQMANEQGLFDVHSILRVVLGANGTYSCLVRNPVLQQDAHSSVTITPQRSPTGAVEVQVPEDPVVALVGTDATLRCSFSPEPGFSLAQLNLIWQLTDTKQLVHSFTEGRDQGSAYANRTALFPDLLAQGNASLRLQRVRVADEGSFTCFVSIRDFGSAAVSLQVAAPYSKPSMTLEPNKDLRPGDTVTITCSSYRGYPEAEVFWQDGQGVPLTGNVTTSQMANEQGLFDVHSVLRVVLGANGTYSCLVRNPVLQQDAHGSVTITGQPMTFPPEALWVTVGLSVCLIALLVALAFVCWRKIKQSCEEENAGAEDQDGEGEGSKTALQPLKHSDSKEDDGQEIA

Kd [nM]	SMILES
< 1	CC(=O)N[C@@H](CCC(C)C)C(=O)N[C@@H](Cc1ccc(O)cc1)C(=O)N[C@H]1CSSC[C@@H](C(=O)N[C@@H](Cc2c[nH]c3ccc(F)cc23)C(=O)N[C@@H](Cc2ccccc2)C(=O)N[C@H](C(N)=O)C(C)(C)O)NC(=O)[C@H](Cc2ccc(O)cc2)NC(=O)[C@H](C(C)C)NC(=O)[C@H](CC(=O)O)NC(=O)[C@H](Cc2ccncc2)NC(=O)[C@H](CCCCNC(=O)CN2CCN(CC(=O)O)CCN(CC(=O)O)CCN(CC(=O)O)CC2)NC(=O)CNC(=O)[C@H](C(C)C)NC1=O [compound 229, Ac-hLeu-Y-C-V-G-Lys(DOTA)-4PyA-D-V-Y-C-5FW-F-hydroxyVal-CONH2] (Ac-[hLeu]YCVGK(DOTA)[4Pal]DVYC[Trp(5-F)]F[Val(3-OH)]-NH2; disulfide 3-11)
100 to 300	CC(=O)N[C@@H](CCC(C)C)C(=O)N[C@@H](Cc1ccc(O)cc1)C(=O)N[C@H]1CSSC[C@@H](C(=O)N[C@@H](Cc2c[nH]c3ccc(F)cc23)C(=O)N[C@@](C)(Cc2ccccc2)C(=O)N[C@H](C(=O)N[C@H](CCCCNC(=O)CN2CCN(CC(=O)O)CCN(CC(=O)O)CCN(CC(=O)O)CC2)C(N)=O)[C@@H](C)O)NC(=O)[C@H](Cc2ccc(O)cc2)NC(=O)[C@H](C(C)C)NC(=O)[C@H](CC(=O)O)NC(=O)[C@H](Cc2ccc(O)cc2)NC(=O)[C@H](CCCCN)NC(=O)CNC(=O)[C@H](C(C)C)NC1=O [compound 168, Ac-hLeu-Y-C-V-G-K-Y-D-V-Y-C-5FW-aMePhe-Thr-dLys(DOTA)-CONH2] (Ac-[hLeu]YCVGKYDVYC[Trp(5-F)][αMeF]T[dK](DOTA)-NH2; disulfide 3-11)
1 to 10	CC(=O)N[C@@H](CCC(C)C)C(=O)N[C@@H](Cc1ccc(O)cc1)C(=O)N[C@H]1CSSC[C@@H](C(=O)N[C@@H](Cc2c[nH]c3ccc(F)cc23)C(=O)N[C@@H](Cc2ccccc2C)C(=O)N[C@H](C(=O)N[C@H](CCCCNC(=O)CN2CCN(CC(=O)O)CCN(CC(=O)O)CCN(CC(=O)O)CC2)C(N)=O)[C@@H](C)O)NC(=O)[C@H](Cc2ccc(O)cc2)NC(=O)[C@H](C(C)C)NC(=O)[C@H](CC(=O)O)NC(=O)[C@H](Cc2ccc(O)cc2)NC(=O)[C@H](CCCCN)NC(=O)CNC(=O)[C@H](C(C)C)NC1=O [compound 165, Ac-hLeu-Y-C-V-G-K-Y-D-V-Y-C-5FW-2MePhe-Thr-dLys(DOTA)-CONH2] (Ac-[hLeu]YCVGKYDVYC[Trp(5-F)][Phe(2-Me)]T[dK](DOTA)-NH2; disulfide 3-11)

Same assay, conditions: SPR KD—37° C., 4Ig B7-H3; 37° C. flow cell temperature

SMILES	Kd [nM]
CC(=O)N[C@@H](CCC(C)C)C(=O)N[C@@H](Cc1ccc(O)cc1)C(=O)N[C@H]1CSSC[C@@H](C(=O)N[C@@H](Cc2c[nH]c3ccc(F)cc23)C(=O)N[C@@H](Cc2ccccc2)C(=O)N[C@H](C(=O)N[C@H](CCCCNC(=O)CN2CCN(CC(=O)O)CCN(CC(=O)O)CCN(CC(=O)O)CC2)C(=O)O)[C@@H](C)O)NC(=O)[C@H](Cc2ccc(O)cc2)NC(=O)[C@H](C(C)C)NC(=O)[C@H](CC(=O)O)NC(=O)[C@H](CC2CCOCC2)NC(=O)[C@H](CCCCNC(=O)CCOCCOCCOCCOCCOCCOCCOCCOCCOCCOCCOCCOCCOCCOCCOCCOCCOCCOCCOCCOCCOCCC(=O)O)NC(=O)CNC(=O)[C@H](C(C)(C)C)NC1=O [compound 341, Ac-hLeu-Y-C-Tbg-G-K(PEG21-COOH)-ThpA-D-V-Y-C-5FW-F-Thr-dLys(DOTA)-COOH] (Ac-[hLeu]YC[Tle]GK(X16)[Ala(4-THP)]DVYC[Trp(5-F)]FT[dK](DOTA)-OH; disulfide 3-11)	10 to 100
CC(=O)N[C@@H](CCC(C)C)C(=O)N[C@@H](Cc1ccc(O)cc1)C(=O)N[C@H]1CSSC[C@@H](C(=O)N[C@@H](Cc2c[nH]c3ccc(F)cc23)C(=O)N[C@@H](Cc2ccccc2)C(=O)N[C@H](C(=O)N[C@H](CCCCNC(=O)CN2CCN(CC(=O)O)CCN(CC(=O)O)CCN(CC(=O)O)CC2)C(=O)O)C(C)(C)O)NC(=O)[C@H](Cc2ccc(O)cc2)NC(=O)[C@H](C(C)C)NC(=O)[C@H](CC(=O)O)NC(=O)[C@H](CC2CCOCC2)NC(=O)[C@H](CCCCNC(=O)CC[C@H](NC(=O)CCCCCCCCCCCCCCC(=O)O)C(=O)O)NC(=O)CNC(=O)[C@H](C(C)(C)C)NC1=O [compound 405, Ac-hLeu-Y-C-Tbg-G-K(yE-C16OH)-ThpA-D-V-Y-C-5FW-F-hydroxyVal-dLys(DOTA)-COOH] (Ac-[hLeu]YC[Tle]GK([γGlu-C16 diacid])[Ala(4-THP)]DVYC[Trp(5-F)]F[Val(3-OH)][dK](DOTA)-OH; disulfide 3-11)	10 to 100
CC(=O)N[C@@H](CCC(C)C)C(=O)N[C@@H](Cc1ccc(O)cc1)C(=O)N[C@H]1CSSC[C@@H](C(=O)N[C@@H](Cc2c[nH]c3ccc(F)cc23)C(=O)N[C@@H](Cc2ccccc2)C(=O)N[C@H](C(=O)O)[C@@H](C)O)NC(=O)[C@H](Cc2ccc(O)cc2)NC(=O)[C@H](C(C)C)NC(=O)[C@H](CC(=O)O)NC(=O)[C@H](CC2CCN(CC(=O)O)CC2)NC(=O)[C@H](CCCCNC(=O)CN2CCN(CC(=O)O)CCN(CC(=O)O)CCN(CC(=O)O)CC2)NC(=O)CNC(=O)[C@H](C(C)(C)C)NC1=O [compound 326, Ac-hLeu-Y-C-Tbg-G-Lys(DOTA)-Pip(CH2COOH)Ala-D-V-Y-C-5FW-F-Thr-COOH] (Ac-[hLeu]YC[Tle]GK(DOTA)[Ala(1-CH2CO2H-4-piperidyl)]DVYC[Trp(5-F)]FT-OH; disulfide 3-11)	10 to 100

Now from value to compound:

Kd [nM]	SMILES
10 to 100	CC(=O)N[C@@H](CCC(C)C)C(=O)N[C@@H](Cc1ccc(O)cc1)C(=O)N[C@H]1CSSC[C@@H](C(=O)N[C@@H](Cc2c[nH]c3ccc(F)cc23)C(=O)N[C@@H](Cc2ccccc2)C(=O)N[C@H](C(=O)O)C(C)(C)O)NC(=O)[C@H](Cc2ccc(O)cc2)NC(=O)[C@H](C(C)C)NC(=O)[C@H](CC(=O)O)NC(=O)[C@H](Cc2ccc(C(=O)O)cc2)NC(=O)[C@H](CCCCNC(=O)CN2CCN(CC(=O)O)CCN(CC(=O)O)CCN(CC(=O)O)CC2)NC(=O)CNC(=O)[C@H](C(C)C)NC1=O [compound 325, Ac-hLeu-Y-C-V-G-Lys(DOTA)-4COOHPhe-D-V-Y-C-5FW-F-hydroxyVal-COOH] (Ac-[hLeu]YCVGK(DOTA)[Phe(4-COOH)]DVYC[Trp(5-F)]F[Val(3-OH)]-OH; disulfide 3-11)
< 1	CC(=O)N[C@@H](CCC(C)C)C(=O)N[C@@H](Cc1ccc(O)cc1)C(=O)N[C@H]1CSSC[C@@H](C(=O)N[C@@H](Cc2c[nH]c3ccc(F)cc23)C(=O)N[C@@H](Cc2ccccc2)C(=O)N[C@H](C(=O)N[C@H](CCCCNC(=O)CC[C@@H](C(=O)O)N2CCN(CC(=O)O)CCN(CC(=O)O)CCN(CC(=O)O)CC2)C(=O)O)C(C)(C)O)NC(=O)[C@H](Cc2ccc(O)cc2)NC(=O)[C@H](C(C)C)NC(=O)[C@H](CC(=O)O)NC(=O)[C@H](CC2CCOCC2)NC(=O)[C@H](CC2CCNCC2)NC(=O)CNC(=O)[C@H](C(C)(C)C)NC1=O [compound 439, Ac-hLeu-Y-C-Tbg-G-PipAla-ThpA-D-V-Y-C-5FW-F-hydroxyVal-dLys(S-DOTAGA)-COOH] (Ac-[hLeu]YC[Tle]G[Ala(piperidin-4-yl)][Ala(4-THP)]DVYC[Trp(5-F)]F[Val(3-OH)][dK](X12)-OH; disulfide 3-11)
1 to 10	CC(=O)N[C@@H](CCC(C)C)C(=O)N[C@@H](Cc1ccc(O)cc1)C(=O)N[C@H]1CSSC[C@@H](C(=O)N[C@H](C(=O)N[C@@H](Cc2ccccc2)C(=O)N[C@H](C(=O)N[C@H](CCCCNC(=O)CN2CCN(CC(=O)O)CCN(CC(=O)O)CCN(CC(=O)O)CC2)C(=O)O)C(C)(C)O)[C@@H](C)c2c[nH]c3ccc(F)cc23)NC(=O)[C@H](Cc2ccc(O)cc2)NC(=O)[C@H](C(C)C)NC(=O)[C@H](CC(=O)O)NC(=O)[C@H](CC2CCOCC2)NC(=O)[C@H](CC2CCNCC2)NC(=O)CNC(=O)[C@H](C(C)(C)C)NC1=O [compound 450, Ac-hLeu-Y-C-Tbg-G-PipAla-ThpA-D-V-Y-C-(2S,3S-betaMe-5FW)-F-hydroxyVal-dLys(DOTA)-COOH] (Ac-[hLeu]YC[Tle]G[Ala(piperidin-4-yl)][Ala(4-THP)]DVYC[X10]F[Val(3-OH)][dK](DOTA)-OH; disulfide 3-11)
< 1	CC(=O)N[C@@H](CCC(C)C)C(=O)N[C@@H](Cc1ccc(O)cc1)C(=O)N[C@H]1CSSC[C@@H](C(=O)N[C@@H](Cc2c[nH]c3ccc(F)cc23)C(=O)N[C@@H](Cc2ccccc2)C(=O)N[C@H](C(=O)N[C@H](CO)C(=O)O)C(C)(C)O)NC(=O)[C@H](Cc2ccc(O)cc2)NC(=O)[C@H](C(C)C)NC(=O)[C@H](CC(=O)O)NC(=O)[C@H](CC2CCN(C(=O)CCOCCOCCOCCOCCNC(=O)CN3CCN(CC(=O)O)CCN(CC(=O)O)CCN(CC(=O)O)CC3)CC2)NC(=O)[C@H](CC2CCNCC2)NC(=O)CNC(=O)[C@H](C(C)(C)C)NC1=O [compound 483, Ac-hLeu-Y-C-Tbg-G-PipAla-Pip(PEG4-DOTA)Ala-D-V-Y-C-5FW-F-hydroxyVal-dSer-COOH] (Ac-[hLeu]YC[Tle]G[Ala(piperidin-4-yl)][Ala(piperidin-4-yl)]([PEG4-DOTA])DVYC[Trp(5-F)]F[Val(3-OH)][dS]-OH; disulfide 3-11)
< 1	CC(=O)N[C@@H](CCC(C)C)C(=O)N[C@@H](Cc1ccc(O)cc1)C(=O)N[C@H]1CSSC[C@@H](C(=O)N[C@@H](Cc2c(C)[nH]c3ccccc23)C(=O)N[C@@H](Cc2ccccc2)C(=O)N[C@H](C(=O)N[C@H](CCCCNC(=O)CN2CCN(CC(=O)O)CCN(CC(=O)O)CCN(CC(=O)O)CC2)C(=O)O)C(C)(C)O)NC(=O)[C@H](Cc2ccc(O)cc2)NC(=O)[C@H](C(C)C)NC(=O)[C@H](CC(=O)O)NC(=O)[C@H](CC2CCOCC2)NC(=O)[C@H](CC2CCNCC2)NC(=O)CNC(=O)[C@H](C(C)(C)C)NC1=O [compound 492, Ac-hLeu-Y-C-Tbg-G-PipAla-ThpA-D-V-Y-C-2MeW-F-hydroxyVal-dLys(DOTA)-COOH] (Ac-[hLeu]YC[Tle]G[Ala(piperidin-4-yl)][Ala(4-THP)]DVYC[Trp(2-Me)]F[Val(3-OH)][dK](DOTA)-OH; disulfide 3-11)
